From patent US11078193B2 (priority 2014, dated 2021)

Experiments:
[1] = Cytotoxicity, HepG2 cells, Resazurin assay; assay type: cell-based; settings: human
HBV [2] = assay: anti HBV activity, HepG2.117 inducibly HBV producing cell line (Tet-off), intracellular HBV DNA by realtime PCR; assay type: cell-based; settings: Hepatitis B virus, 72 h, HepG2.117 cells, 3 days of treatment
[3] = ATP based toxicity assay (ATPlite), HepG2 cell line; settings: human, HepG2 cells, ATPlite (ATP levels)
In short: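 HepG2 cells exposed to compound, then ATPlite reagent added at 1 volume. Cellular ATP read by luminescence as a viability measure.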

HBV [4] = assay: anti-HBV activity, HepG2.2.15 stable transfected cell line, HBV DNA from secreted virions by realtime PCR; assay type: cell-based; settings: Hepatitis B virus, 144 h, HepG2.2.15 cells, 6 days of treatment

SMILES | melting point | CC50 at 4 days [1] | EC50 (HBV [2]) | CC50 at 4 days [3] | EC50 (HBV [4])
Cc1nc(NC(=O)c2c(Cl)c(S(=O)(=O)N[C@H](C)C(F)(F)F)cn2C)ccc1F [Compound 7, 3-Chloro-N-(5-fluoro-6-methylpyridin-2-yl)-1-methyl-4-{[(1R)-2,2,2-trifluoro-1-methylethyl]sulfamoyl}-1H-pyrrole-2-carboxamide] | 173.1 °C | > 25 µM | 0.25 µM | > 25 µM | 0.09 µM
Cc1cc(NC(=O)c2c(Cl)c(S(=O)(=O)N[C@H](C)C(F)(F)F)cn2C)ccn1 [Compound 8, 3-Chloro-1-methyl-N-(2-methylpyridin-4-yl)-4-{[(1R)-2,2,2-trifluoro-1-methylethyl]sulfamoyl}-1H-pyrrole-2-carboxamide] | 203.5 °C | > 25 µM | 0.17 µM |  | 0.09 µM
C[C@@H](NS(=O)(=O)c1cn(C)c(C(=O)Nc2ccnc(C#N)c2)c1Cl)C(F)(F)F [Compound 9, 3-Chloro-N-(2-cyanopyridin-4-yl)-1-methyl-4-{[(1R)-2,2,2-trifluoro-1-methylethyl]sulfamoyl}-1H-pyrrole-2-carboxamide] | 190.8 °C | > 25 µM | 0.04 µM | > 25 µM | 0.02 µM
C[C@@H](NS(=O)(=O)c1cn(C)c(C(=O)Nc2ccnc(F)c2)c1Cl)C(F)(F)F [Compound 11, 3-Chloro-N-(2-fluoropyridin-4-yl)-1-methyl-4-{[(1R)-2,2,2-trifluoro-1-methylethyl]sulfamoyl}-1H-pyrrole-2-carboxamide] | 218.1 °C | > 25 µM | 0.06 µM |  | 0.02 µM
Cc1nccc(NC(=O)c2c(Cl)c(S(=O)(=O)N[C@H](C)C(F)(F)F)cn2C)c1F [Compound 14, 3-chloro-N-(3-fluoro-2-methyl-4-pyridyl)-1-methyl-4-[[(1R)-2,2,2-trifluoro-1-methyl-ethyl]sulfamoyl]pyrrole-2-carboxamide] | 197.8 °C | > 25 µM | 0.12 µM |  | 0.06 µM
C[C@@H](NS(=O)(=O)c1cn(C)c(C(=O)Nc2ccccn2)c1Cl)C(F)(F)F [Compound 15, 3-chloro-1-methyl-N-(2-pyridyl)-4-[[(1R)-2,2,2-trifluoro-1-methyl-ethyl]sulfamoyl]pyrrole-2-carboxamide] | 195.2 °C | > 25 µM | > 1 µM |  | > 1 µM
C[C@@H](NS(=O)(=O)c1cn(C)c(C(=O)Nc2ccncc2)c1Cl)C(F)(F)F [Compound 16, 3-chloro-1-methyl-N-(4-pyridyl)-4-[[(1R)-2,2,2-trifluoro-1-methyl-ethyl]sulfamoyl]pyrrole-2-carboxamide] | 259.3 °C | > 25 µM | 0.28 µM |  | 0.4 µM
C[C@@H](NS(=O)(=O)c1cn(C)c(C(=O)Nc2cccnc2)c1Cl)C(F)(F)F [Compound 17, 3-chloro-1-methyl-N-(3-pyridyl)-4-[[(1R)-2,2,2-trifluoro-1-methyl-ethyl]sulfamoyl]pyrrole-2-carboxamide] | 196.6 °C | > 25 µM | 0.53 µM |  | 0.75 µM
Cn1cc(S(=O)(=O)NC2(C(F)(F)F)CCC2)c(Cl)c1C(=O)Nc1ccnc(C#N)c1 [Compound 40, 3-chloro-N-(2-cyano-4-pyridyl)-1-methyl-4-[[1-(trifluoromethyl)cyclobutyl]sulfamoyl]pyrrole-2-carboxamide] |  | > 25 µM | 0.02 µM | > 25 µM | 0.02 µM
Cn1cc(S(=O)(=O)NC2(C(F)(F)F)CCC2)c(Cl)c1C(=O)Nc1ccnc(Cl)c1 [Compound 46, 3-chloro-N-(2-chloro-4-pyridyl)-1-methyl-4-[[1-(trifluoromethyl)cyclobutyl]-sulfamoyl]pyrrole-2-carboxamide] |  | > 25 µM | 0.02 µM | > 25 µM | 0.01 µM
C[C@@H](NS(=O)(=O)c1cn(C)c(C(=O)Nc2ccnc(Cl)c2)c1F)C(C)(F)F [Compound 61, N-(2-chloro-4-pyridyl)-4-[[(1R)-2,2-difluoro-1-methyl-propyl]sulfamoyl]-3-fluoro-1-methyl-pyrrole-2-carboxamide] |  | > 25 µM | 0.02 µM | > 25 µM | 0.01 µM
C[C@@H](NS(=O)(=O)c1cn(C)c(C(=O)Nc2ccnc(C#N)c2)c1F)C(C)(F)F [Compound 63, N-(2-cyano-4-pyridyl)-4-[[(1R)-2,2-difluoro-1-methyl-propyl]sulfamoyl]-3-fluoro-1-methyl-pyrrole-2-carboxamide] |  | > 25 µM | 0.03 µM | > 25 µM | 0.01 µM
C[C@@H](NS(=O)(=O)c1cn(C)c(C(=O)Nc2ccnc(C(F)F)c2)c1Cl)C(F)(F)F [Compound 74, 3-chloro-N-[2-(difluoromethyl)-4-pyridyl]-1-methyl-4-[[(1R)-2,2,2-trifluoro-1-methyl-ethyl]sulfamoyl]pyrrole-2-carboxamide] |  | > 25 µM | 0.02 µM | > 25 µM | 0.02 µM
C[C@@H](NS(=O)(=O)c1cn(C)c(C(=O)Nc2ccnc(C(F)F)c2)c1F)C(F)(F)F [Compound 80, N-[2-(difluoromethyl)-4-pyridyl]-3-fluoro-1-methyl-4-[[(1R)-2,2,2-trifluoro-1-methyl-ethyl]sulfamoyl]pyrrole-2-carboxamide] |  | > 25 µM | 0.02 µM | > 25 µM | 0.01 µM
Cn1cc(S(=O)(=O)NC2(C)CC(F)(F)C2)c(F)c1C(=O)Nc1ccnc(Cl)c1F [Compound 81, N-(2-chloro-3-fluoro-4-pyridyl)-4-[(3,3-difluoro-1-methyl-cyclobutyl)sulfamoyl]-3-fluoro-1-methyl-pyrrole-2-carboxamide] |  | 24.3 µM | 0.008 µM | > 25 µM | 0.01 µM
C[C@@H](NS(=O)(=O)c1cn(C)c(C(=O)Nc2ccnc(C(F)F)c2)c1F)C(C)(F)F [Compound 88, 4-[[(1R)-2,2-difluoro-1-methyl-propyl]sulfamoyl]-N-[2-(difluoromethyl)-4-pyridyl]-3-fluoro-1-methyl-pyrrole-2-carboxamide] |  | > 25 µM | 0.01 µM | > 25 µM | 0.007 µM
C[C@@H](NS(=O)(=O)c1cn(C)c(C(=O)Nc2ccnc(F)c2)c1Cl)C(C)(F)F [Compound 95, 3-chloro-4-[[(1R)-2,2-difluoro-1-methyl-propyl]sulfamoyl]-N-(2-fluoro-4-pyridyl)-1-methyl-pyrrole-2-carboxamide] |  | 21.6 µM | 0.04 µM | > 25 µM | 0.06 µM
C[C@@H](NS(=O)(=O)c1cn(C)c(C(=O)Nc2ccnc(C(F)F)c2)c1Cl)C(C)(F)F [Compound 97, 3-chloro-4-[[(1R)-2,2-difluoro-1-methyl-propyl]sulfamoyl]-N-[2-(difluoromethyl)-4-pyridyl]-1-methyl-pyrrole-2-carboxamide] |  | > 25 µM | 0.02 µM | > 25 µM | 0.02 µM
C[C@@H](NS(=O)(=O)c1cn(C)c(C(=O)Nc2ccnc(F)c2)c1F)C(C)(F)F [Compound 98, 4-[[(1R)-2,2-difluoro-1-methyl-propyl]sulfamoyl]-3-fluoro-N-(2-fluoro-4-pyridyl)-1-methyl-pyrrole-2-carboxamide] |  | > 25 µM | 0.03 µM | > 25 µM | 0.04 µM
Cn1cc(S(=O)(=O)NC2(C)CC(F)(F)C2)c(Cl)c1C(=O)Nc1ccnc(C(F)F)c1 [Compound 99, 3-chloro-4-[(3,3-difluoro-1-methyl-cyclobutyl)sulfamoyl]-N-[2-(difluoromethyl)-4-pyridyl]-1-methyl-pyrrole-2-carboxamide] |  | > 25 µM | 0.02 µM | > 25 µM | 0.01 µM
C[C@@H](NS(=O)(=O)c1cn(C)c(C(=O)Nc2cc(F)nc(F)c2)c1Cl)C(C)(F)F [Compound 104, 3-chloro-4-[[(1R)-2,2-difluoro-1-methyl-propyl]sulfamoyl]-N-(2,6-difluoro-4-pyridyl)-1-methyl-pyrrole-2-carboxamide] |  | > 25 µM | 0.01 µM | > 25 µM | < 0.1 µM
C[C@@H](NS(=O)(=O)c1cn(C)c(C(=O)Nc2ccnc(Br)c2)c1Cl)C(C)(F)F [Compound 105, N-(2-bromo-4-pyridyl)-3-chloro-4-[[(1R)-2,2-difluoro-1-methyl-propyl]sulfamoyl]-1-methyl-pyrrole-2-carboxamide] |  | > 25 µM | 0.02 µM | 23.3 µM | < 0.1 µM
Cc1cc(NC(=O)c2c(F)c(S(=O)(=O)N[C@H](C)C(F)(F)F)cn2C)cc(F)n1 [Compound 152, 3-fluoro-N-(2-fluoro-6-methyl-4-pyridyl)-1-methyl-4-[[(1R)-2,2,2-trifluoro-1-methyl-ethyl]sulfamoyl]pyrrole-2-carboxamide] |  | > 25 µM | 0.01 µM | > 25 µM | < 0.1 µM
C[C@@H](NS(=O)(=O)c1cn(C)c(C(=O)Nc2cc(F)nc(F)c2)c1F)C(C)(F)F [Compound 159, 4-[[(1R)-2,2-difluoro-1-methyl-propyl]sulfamoyl]-N-(2,6-difluoro-4-pyridyl)-3-fluoro-1-methyl-pyrrole-2-carboxamide] |  | > 25 µM | 0.009 µM | > 25 µM | < 0.1 µM
